In article PMC6273194, “Synthesis and Evaluation of Aminothiazole-Paeonol Derivatives as Potential Anticancer Agents” (Molecules, 2016):
Where two headings read alike, the source gives them in different places.

How the values were obtained:
[1] = tested on: human pancreas adenocarcinoma (PaTu8988t) cells; experiment: MTT cell viability assay, PaTu8988t; type: cell-based; details: PaTu 8988t, 48 h
Method: (§1) Cell lines, including human gastric adenocarcinoma (AGS), human cervix adenocarcinoma (HeLa), human pancreas adenocarcinoma (PaTu8988t), human colorectal adenocarcinoma (HT-29), human glioblastoma (U87-MG), human lung adenocarcinoma (A549), mouse colon carcinoma (CT26.WT) cells and embryonic fibroblast (BALB/3T3) were purchased from Bioresource Collection and Research Center (BCRC, Taiwan) to evaluate anticancer activity of aminothiazole-paeonol derivatives. Five cell lines were cultured in different media from Gibco (Life Technologies, Grand Island, NY, USA) and Hyclone (GE Healthcare Life Science). Cells were cultured in 90% medium mixed with 10% serum at 37 °C in humidified atmosphere with 5% CO2 and grown in T-75 flask with a feeding cycle of two to three days. The composition and procedures of preparing culture media for different cell lines were followed by instruction manual of suppliers.
(§2) The different cell lines were seeded into 96-well tissue culture plates at a concentration of 5 × 10^3 cells/100 µL/well overnight. Subsequently, the cells were treated with serial concentrations of seven paeonol derivatives. After 48 h of incubation, cell viability of each cell line was determined by MTT colorimetric assay. Briefly, 100 µL of 2 mg/mL MTT reagent (Sigma-Aldrich, St. Louis, MO, USA) was added to each well and incubated for 4 h at 37 °C. Later, the medium was aspirated and 100 µL of dimethyl sulphoxide (DMSO) added to each well; finally, the OD595 of each well was measured by ELISA reader (TECAN, Wien, Austria).

[2] = tested on: human glioblastoma (U87-MG) cells; experiment: MTT cell viability assay, U87-MG; type: cell-based; details: U-87 MG, 48 h
Method: as §1, §2

[3] = tested on: mouse colon carcinoma (CT26.WT) cells; experiment: MTT cell viability assay, CT26.WT; type: cell-based; details: 48 h
Method: as §1, §2

[4] = tested on: human gastric adenocarcinoma (AGS) cells; experiment: MTT cell viability assay, AGS; type: cell-based; details: 48 h
Method: as §1, §2

[5] = tested on: human lung adenocarcinoma (A549) cells; experiment: MTT cell viability assay, A549; type: cell-based; details: A549, 48 h
Method: as §1, §2

[6] = tested on: BALB/3T3 cells; experiment: MTT cell viability assay, embryonic fibroblast BALB/3T3; type: cell-based; details: Mus musculus, BALB/3T3 fibroblasts, 48 h
Method: as §1, §2

[7] = tested on: human colorectal adenocarcinoma (HT-29) cells; experiment: MTT cell viability assay, HT-29; type: cell-based; details: HT-29, 48 h
Method: as §1, §2

[8] = tested on: human cervix adenocarcinoma (HeLa) cells; experiment: MTT cell viability assay, HeLa; type: cell-based; details: 48 h
Method: as §1, §2

[9] = tested on: human glioblastoma (U87-MG) cells; details: 48 h after treatment, ref [25],[26],[27],[28],[29],[30],[31],[32]; cited from earlier work
[10] = tested on: human gastric adenocarcinoma (AGS) cells; details: 24 h after treatment, ref [25],[26],[27],[28],[29],[30],[31],[32]; cited from earlier work
[11] = tested on: human cervix adenocarcinoma (HeLa) cells; details: 48 h after treatment, ref [25],[26],[27],[28],[29],[30],[31],[32]; cited from earlier work
[12] = tested on: human lung adenocarcinoma (A549) cells; details: A549, 48 h after treatment; ref [25],[26],[27],[28],[29],[30],[31],[32]; cited from earlier work
[13] = tested on: human colorectal adenocarcinoma (HT-29) cells; details: HT-29, 48 h after treatment; ref [25],[26],[27],[28],[29],[30],[31],[32]; cited from earlier work
[14] = tested on: BALB/3T3 cells; details: BALB/3T3, 72 h after treatment; ref [25],[26],[27],[28],[29],[30],[31],[32]; cited from earlier work
[15] = tested on: human pancreas adenocarcinoma (PaTu8988t) cells; details: 48 h after treatment, ref [25],[26],[27],[28],[29],[30],[31],[32]; cited from earlier work
[16] = tested on: mouse colon carcinoma (CT26.WT) cells; details: 72 h after treatment, ref [25],[26],[27],[28],[29],[30],[31],[32]; cited from earlier work

COc1ccc(-c2csc(NS(=O)(=O)c3ccc(C)cc3)n2)c(O)c1 [Compound 13b, N-[4-(2-Hydroxy-4-methoxyphenyl)thiazol-2-yl]-4-methylbenzenesulfonamide]
IC50 [1]: 38.7 µM
IC50 [2]: > 50 µM
IC50 [3]: > 50 µM
IC50 [4]: 22 µM
IC50 [5]: > 50 µM
IC50 [6]: > 50 µM
IC50 [7]: 14.1 µM
IC50 [8]: 27.4 µM

COc1ccc(-c2csc(NS(=O)(=O)c3ccc([N+](=O)[O-])cc3)n2)c(O)c1 [Compound 13g, N-[4-(2-Hydroxy-4-methoxyphenyl)thiazol-2-yl]-4-nitrobenzenesulfonamide]
IC50 [1]: > 50 µM
IC50 [2]: > 50 µM
IC50 [3]: 30 µM
IC50 [4]: > 50 µM
IC50 [5]: > 50 µM
IC50 [6]: 32.2 µM
IC50 [7]: 47.8 µM
IC50 [8]: > 50 µM

COc1ccc(-c2csc(NS(=O)(=O)c3ccccc3)n2)c(O)c1 [Compound 13a, N-[4-(2-Hydroxy-4-methoxyphenyl)thiazol-2-yl]benzenesulfonamide]
IC50 [1]: 31.1 µM
IC50 [2]: > 50 µM
IC50 [3]: > 50 µM
IC50 [4]: > 50 µM
IC50 [5]: > 50 µM
IC50 [6]: > 50 µM
IC50 [7]: 20.7 µM
IC50 [8]: > 50 µM

COc1ccc(S(=O)(=O)Nc2nc(-c3ccc(OC)cc3O)cs2)cc1 [Compound 13c, N-[4-(2-Hydroxy-4-methoxyphenyl)thiazol-2-yl]-4-methoxybenzenesulfonamide]
IC50 [1]: 15.8 µM
IC50 [2]: 22.5 µM
IC50 [3]: 10 µM
IC50 [4]: 4 µM
IC50 [5]: > 50 µM
IC50 [6]: 32.7 µM
IC50 [7]: 4.4 µM
IC50 [8]: 5.8 µM

COc1ccc(-c2csc(NS(=O)(=O)c3ccc(Br)cc3)n2)c(O)c1 [Compound 13f, 4-Bromo-N-[4-(2-hydroxy-4-methoxyphenyl)thiazol-2-yl]benzenesulfonamide]
IC50 [1]: 22.8 µM
IC50 [2]: > 50 µM
IC50 [3]: > 50 µM
IC50 [4]: > 50 µM
IC50 [5]: > 50 µM
IC50 [6]: > 50 µM
IC50 [7]: 11 µM
IC50 [8]: 16.4 µM

O=c1[nH]cc(F)c(=O)[nH]1 [Compound 5-FU, 5-fluorouracil, reference compound]
IC50 [1]: 12.5 µM
IC50 [2]: > 50 µM
IC50 [9]: 4.9 µM
IC50 [3]: 9.2 µM
IC50 [10]: 79.5 µM
IC50 [4]: 43.8 µM
IC50 [5]: > 50 µM
IC50 [6]: 1 µM
IC50 [7]: 7.2 µM
IC50 [11]: 0.232 µM
IC50 [12]: 10.3 µM
IC50 [13]: 19.3 µM
IC50 [8]: 2.2 µM
IC50 [14]: 13 µM
IC50 [15]: 11.3 µM
IC50 [16]: 61 µM

COc1ccc(-c2csc(NS(=O)(=O)c3ccc(F)cc3)n2)c(O)c1 [Compound 13d, 4-Fluoro-N-[4-(2-hydroxy-4-methoxyphenyl)thiazol-2-yl]benzenesulfonamide]
IC50 [1]: 31.4 µM
IC50 [2]: > 50 µM
IC50 [3]: > 50 µM
IC50 [4]: 7.2 µM
IC50 [5]: > 50 µM
IC50 [6]: > 50 µM
IC50 [7]: 11.2 µM
IC50 [8]: 13.8 µM

COc1ccc(-c2csc(NS(=O)(=O)c3ccc(Cl)cc3)n2)c(O)c1 [Compound 13e, 4-Chloro-N-[4-(2-hydroxy-4-methoxyphenyl)thiazol-2-yl]benzenesulfonamide]
IC50 [1]: > 50 µM
IC50 [2]: > 50 µM
IC50 [3]: > 50 µM
IC50 [4]: > 50 µM
IC50 [5]: > 50 µM
IC50 [6]: > 50 µM
IC50 [7]: 13.4 µM
IC50 [8]: > 50 µM
